Article PMC7714403 (JCI Insight, 2020)
“And” between values parts separate entries of the source, which are not always exact repeats. Equal values may be shown once.

Experiments:
PRP4 = PRP4 (Homo sapiens, UniProt Q13523); assay: KiNativ, OCI cells live cell; assay type: cell-based; conditions: 2 h, labeling site Lys2, peptide […]
[1] = system: CaMK2a, CaMK2b, CaMK2d, CaMK2g; assay: KiNativ, MOLM13 live cells; assay type: cell-based, human; conditions: 100 nM, 2 hours; Lys2
Method: (§1) Samples were analyzed by KiNativ in situ kinase profiling by ActivX Biosciences.

PI4KA, PI4KAP2 = assay: KiNativ, MOLM13 live cells; assay type: cell-based, human; conditions: 100 nM, 2 hours; ATP
Method: as §1

CK1g1, CK1g2, CK1g3 = assay: KiNativ, MOLM13 live cells; assay type: cell-based, human; conditions: 100 nM, 2 hours; ATP Loop
Method: as §1

MARK2, MARK3 = assay: KiNativ, MOLM13 live cells; assay type: cell-based, human; conditions: 100 nM, 2 hours; Lys2
Method: as §1

KSR1, KSR2 = assay: KiNativ, MOLM13 live cells; assay type: cell-based, human; conditions: 100 nM, 2 hours; Activation Loop
Method: as §1

IKKe, TBK1 = assay: KiNativ, MOLM13 live cells; assay type: cell-based, human; conditions: 100 nM, 2 hours; Lys2
Method: as §1

Wnk1, Wnk2, Wnk4 = assay: KiNativ, MOLM13 live cells; assay type: cell-based, human; conditions: 100 nM, 2 hours; Activation Loop
Method: as §1

MAP2K1, MAP2K2 = assay: KiNativ, MOLM13 live cells; assay type: cell-based, human; conditions: 100 nM, 2 hours; Lys2
Method: as §1

MAPKAPK2, MAPKAPK3 = assay: KiNativ, MOLM13 live cells; assay type: cell-based, human; conditions: 100 nM, 2 hours; Lys2
Method: as §1

AurA, AurB, AurC = assay: KiNativ, MOLM13 live cells; assay type: cell-based, human; conditions: 100 nM, 2 hours; ATP Loop
Method: as §1

Wnk1, Wnk2, Wnk3 = assay: KiNativ, MOLM13 live cells; assay type: cell-based, human; conditions: 100 nM, 2 hours; Lys2
Method: as §1

ABL, ARG = assay: KiNativ, MOLM13 live cells; assay type: cell-based, human; conditions: 100 nM, 2 hours
Method: as §1

PCTAIRE1, PCTAIRE3 = assay: KiNativ, MOLM13 live cells; assay type: cell-based, human; conditions: 100 nM, 2 hours; Lys2
Method: as §1

PCTAIRE2, PCTAIRE3 = assay: KiNativ, MOLM13 live cells; assay type: cell-based, human; conditions: 100 nM, 2 hours; Lys1
Method: as §1

[2] = Tolerability studies in tumor-bearing mice; assay type: in vivo; conditions: once daily continuously or 5 consecutive days per week, up to 3–6 weeks
Method: We performed tolerability studies in tumor-bearing 8- to 12-week-old female NOD-scid-γ (NSG) mice.
days/week, along with vehicle, was administered in female NSG mice engrafted with MOLM13 -Luc+ and
MOLM13-Res -Luc+ cells. Treatment started on day-7 and -13 post-tail vein injection (TVI) in MOLM13-Luc+
and MOLM13-Res -Luc+, respectively. Change in their daily weights (%) were followed for tolerability.
(1 picture or pasted object on this page, not shown here)

CaMK1d = CaMK1d (Homo sapiens, UniProt Q8IU85); assay: KiNativ, OCI cells live cell; assay type: cell-based; conditions: 2 h
JAK3 domain2 = target: T1, JAK3 domain2 (Homo sapiens, UniProt P52333); assay: KiNativ, OCI cells live cell; assay type: cell-based; conditions: 2 h, labeling site Lys1, peptide […]
T1 construct: JAK3 domain2

CK1g3 = CK1g3 (Homo sapiens, UniProt Q9Y6M4); assay: KiNativ, OCI cells live cell; assay type: cell-based; conditions: labeling site Lys2, peptide DVKPENFLIGRPGNK
MAP4K5 = MAP4K5 (Homo sapiens, UniProt Q9Y4K4); assay: KiNativ, OCI cells live cell; assay type: cell-based; conditions: 2 h
CDK7 = CDK7 (Homo sapiens, UniProt P50613); assay: KdELECT binding assay; set-up: purchased Eurofins DiscoverX
MLK3 = MLK3 (Homo sapiens, UniProt Q16584); assay: KiNativ, OCI cells live cell; assay type: cell-based; conditions: labeling site Lys2, peptide DLKSNNILLLQPIESDDMEHK
RSK3 domain1 = target: T2, RSK3 domain1 (Homo sapiens, UniProt Q15349); assay: KiNativ, OCI cells live cell; assay type: cell-based; conditions: 2 h, labeling site Lys2, peptide […]
T2 construct: RSK3 domain1

GSK3B = GSK3B (Homo sapiens, UniProt P49841); assay: KiNativ, OCI cells live cell; assay type: cell-based; conditions: 2 h, labeling site Lys2, peptide […]
[3] = system: MSK1 domain1, MSK2 domain1; assay: KiNativ, OCI cells live cell; assay type: cell-based, human; conditions: labeling site ATP Loop, peptide VLGTGAYGKVFLVR
IRAK3 = target: T3, IRAK3 (Homo sapiens, UniProt Q9Y616); assay: KiNativ, OCI cells live cell; assay type: cell-based; conditions: 2 h
T3 sequence (Q9Y616 1-596): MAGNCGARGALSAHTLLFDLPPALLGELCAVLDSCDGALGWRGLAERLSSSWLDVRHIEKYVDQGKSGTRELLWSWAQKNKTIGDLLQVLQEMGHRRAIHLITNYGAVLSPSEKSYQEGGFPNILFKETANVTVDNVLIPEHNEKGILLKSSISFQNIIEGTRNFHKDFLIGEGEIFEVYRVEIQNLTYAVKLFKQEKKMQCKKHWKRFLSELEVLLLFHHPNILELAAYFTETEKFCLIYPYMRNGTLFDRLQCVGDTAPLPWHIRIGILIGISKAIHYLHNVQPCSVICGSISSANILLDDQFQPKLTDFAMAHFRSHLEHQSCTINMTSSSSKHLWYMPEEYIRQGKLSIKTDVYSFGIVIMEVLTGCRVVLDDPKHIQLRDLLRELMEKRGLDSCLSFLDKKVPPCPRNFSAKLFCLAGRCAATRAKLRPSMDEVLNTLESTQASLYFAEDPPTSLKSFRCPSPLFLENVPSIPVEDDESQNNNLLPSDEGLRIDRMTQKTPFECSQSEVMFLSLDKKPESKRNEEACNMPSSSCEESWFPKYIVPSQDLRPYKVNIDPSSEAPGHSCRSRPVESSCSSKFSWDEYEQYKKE

FLT3 ITD/D835V = FLT3 ITD/D835V (Homo sapiens, UniProt P36888, D835V/ITD); assay: KdELECT binding assay
RSK1 domain2 = target: T4, RSK1 domain2 (Homo sapiens, UniProt Q15418); assay: KiNativ, OCI cells live cell; assay type: cell-based; conditions: 2 h, labeling site Lys2, peptide […]
T4 construct: RSK1 domain2

MAP4K5, sequence (Q9Y4K4 whole entry): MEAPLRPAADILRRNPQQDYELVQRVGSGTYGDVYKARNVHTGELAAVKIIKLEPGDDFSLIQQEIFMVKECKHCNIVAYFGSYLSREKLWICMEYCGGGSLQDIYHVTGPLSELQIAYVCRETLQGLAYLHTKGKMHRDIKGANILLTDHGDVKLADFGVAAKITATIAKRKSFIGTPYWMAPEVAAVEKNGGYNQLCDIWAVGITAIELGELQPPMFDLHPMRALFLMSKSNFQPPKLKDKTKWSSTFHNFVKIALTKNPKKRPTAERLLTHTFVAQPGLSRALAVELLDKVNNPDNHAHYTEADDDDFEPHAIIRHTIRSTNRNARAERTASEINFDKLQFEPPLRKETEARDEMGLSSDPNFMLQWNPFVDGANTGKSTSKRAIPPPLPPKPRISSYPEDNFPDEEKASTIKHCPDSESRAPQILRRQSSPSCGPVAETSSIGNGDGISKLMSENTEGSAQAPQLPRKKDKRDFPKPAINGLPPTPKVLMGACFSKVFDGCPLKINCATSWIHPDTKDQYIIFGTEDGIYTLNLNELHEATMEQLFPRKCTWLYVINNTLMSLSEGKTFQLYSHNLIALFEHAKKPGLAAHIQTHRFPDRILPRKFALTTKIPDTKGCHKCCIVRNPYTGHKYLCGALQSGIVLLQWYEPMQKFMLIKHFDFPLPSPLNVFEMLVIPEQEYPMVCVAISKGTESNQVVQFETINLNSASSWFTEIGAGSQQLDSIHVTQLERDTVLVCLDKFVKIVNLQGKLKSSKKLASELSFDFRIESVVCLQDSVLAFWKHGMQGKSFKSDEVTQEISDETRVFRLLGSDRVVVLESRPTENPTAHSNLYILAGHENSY
CaMK1d, sequence (Q8IU85 whole entry, the tested form may be a part): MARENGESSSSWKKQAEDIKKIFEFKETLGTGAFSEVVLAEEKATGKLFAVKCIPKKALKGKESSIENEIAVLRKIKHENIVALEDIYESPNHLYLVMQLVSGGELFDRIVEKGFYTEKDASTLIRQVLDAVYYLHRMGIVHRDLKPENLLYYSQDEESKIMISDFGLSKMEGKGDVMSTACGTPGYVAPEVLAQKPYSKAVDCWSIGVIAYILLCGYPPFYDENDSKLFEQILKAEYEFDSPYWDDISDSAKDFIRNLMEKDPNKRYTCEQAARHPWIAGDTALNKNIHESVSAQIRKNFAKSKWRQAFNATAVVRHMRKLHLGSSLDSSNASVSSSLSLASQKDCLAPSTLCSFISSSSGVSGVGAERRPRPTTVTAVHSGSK
PRP4, sequence (Q13523 whole entry): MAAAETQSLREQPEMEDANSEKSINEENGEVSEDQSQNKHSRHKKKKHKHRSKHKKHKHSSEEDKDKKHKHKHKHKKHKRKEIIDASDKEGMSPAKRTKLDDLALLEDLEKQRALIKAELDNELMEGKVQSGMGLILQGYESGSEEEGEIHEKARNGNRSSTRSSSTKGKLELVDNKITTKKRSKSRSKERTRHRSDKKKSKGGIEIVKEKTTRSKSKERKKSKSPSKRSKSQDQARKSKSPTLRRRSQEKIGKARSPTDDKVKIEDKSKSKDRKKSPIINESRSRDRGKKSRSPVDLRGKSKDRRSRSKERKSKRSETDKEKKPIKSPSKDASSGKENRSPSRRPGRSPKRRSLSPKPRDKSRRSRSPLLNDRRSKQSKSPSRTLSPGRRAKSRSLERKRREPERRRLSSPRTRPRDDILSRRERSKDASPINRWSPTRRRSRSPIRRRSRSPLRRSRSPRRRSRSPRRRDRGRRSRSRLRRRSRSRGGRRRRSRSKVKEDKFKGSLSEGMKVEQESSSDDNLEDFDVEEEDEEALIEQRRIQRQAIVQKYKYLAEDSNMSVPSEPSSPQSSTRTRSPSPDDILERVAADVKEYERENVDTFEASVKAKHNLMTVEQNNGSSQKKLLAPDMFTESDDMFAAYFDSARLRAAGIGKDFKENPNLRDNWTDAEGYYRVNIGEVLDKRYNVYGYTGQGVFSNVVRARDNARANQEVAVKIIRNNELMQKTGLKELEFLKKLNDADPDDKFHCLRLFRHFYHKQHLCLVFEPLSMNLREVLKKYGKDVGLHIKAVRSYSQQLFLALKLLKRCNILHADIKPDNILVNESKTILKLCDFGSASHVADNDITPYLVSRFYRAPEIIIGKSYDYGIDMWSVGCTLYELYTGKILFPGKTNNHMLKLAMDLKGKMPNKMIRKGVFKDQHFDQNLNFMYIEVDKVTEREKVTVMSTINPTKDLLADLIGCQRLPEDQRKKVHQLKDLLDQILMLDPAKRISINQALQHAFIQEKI
MLK3, sequence (Q16584 whole entry, the tested form may be a part): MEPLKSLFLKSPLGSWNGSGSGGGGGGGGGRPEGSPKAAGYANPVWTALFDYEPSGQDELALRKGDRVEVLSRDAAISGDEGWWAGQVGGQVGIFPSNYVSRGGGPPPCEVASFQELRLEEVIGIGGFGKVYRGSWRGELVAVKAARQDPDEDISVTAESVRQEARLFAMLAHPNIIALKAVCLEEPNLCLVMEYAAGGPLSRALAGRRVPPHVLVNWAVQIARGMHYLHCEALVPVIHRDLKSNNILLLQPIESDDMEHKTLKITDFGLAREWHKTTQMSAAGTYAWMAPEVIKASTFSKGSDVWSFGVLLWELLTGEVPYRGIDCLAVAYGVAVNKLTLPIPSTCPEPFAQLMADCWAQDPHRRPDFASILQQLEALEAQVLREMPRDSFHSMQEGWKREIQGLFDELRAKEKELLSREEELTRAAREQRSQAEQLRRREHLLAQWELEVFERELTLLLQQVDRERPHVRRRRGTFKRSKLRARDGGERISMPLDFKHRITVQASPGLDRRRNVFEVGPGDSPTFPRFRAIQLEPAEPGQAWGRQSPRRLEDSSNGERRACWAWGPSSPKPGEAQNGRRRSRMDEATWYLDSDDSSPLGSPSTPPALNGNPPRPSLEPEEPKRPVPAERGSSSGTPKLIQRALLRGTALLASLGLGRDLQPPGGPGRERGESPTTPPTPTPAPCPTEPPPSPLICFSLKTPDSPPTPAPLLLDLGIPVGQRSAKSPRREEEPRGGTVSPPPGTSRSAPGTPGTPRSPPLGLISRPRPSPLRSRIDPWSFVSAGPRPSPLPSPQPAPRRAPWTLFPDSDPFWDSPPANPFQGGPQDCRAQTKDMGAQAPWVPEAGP
CK1g3, sequence (Q9Y6M4 whole entry): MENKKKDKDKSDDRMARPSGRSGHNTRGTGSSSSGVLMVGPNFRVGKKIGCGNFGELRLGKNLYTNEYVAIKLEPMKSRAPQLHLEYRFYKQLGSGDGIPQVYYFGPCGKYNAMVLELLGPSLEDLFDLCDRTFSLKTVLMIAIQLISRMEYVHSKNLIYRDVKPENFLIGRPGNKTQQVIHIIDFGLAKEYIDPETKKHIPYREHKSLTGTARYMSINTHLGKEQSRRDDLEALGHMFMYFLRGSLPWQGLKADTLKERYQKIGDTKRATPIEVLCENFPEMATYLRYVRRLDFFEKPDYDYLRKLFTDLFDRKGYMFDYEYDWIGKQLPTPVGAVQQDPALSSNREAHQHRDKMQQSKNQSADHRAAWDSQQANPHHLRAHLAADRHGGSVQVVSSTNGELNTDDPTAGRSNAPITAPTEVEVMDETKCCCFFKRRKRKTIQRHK
GSK3B, sequence (P49841 whole entry, the tested form may be a part): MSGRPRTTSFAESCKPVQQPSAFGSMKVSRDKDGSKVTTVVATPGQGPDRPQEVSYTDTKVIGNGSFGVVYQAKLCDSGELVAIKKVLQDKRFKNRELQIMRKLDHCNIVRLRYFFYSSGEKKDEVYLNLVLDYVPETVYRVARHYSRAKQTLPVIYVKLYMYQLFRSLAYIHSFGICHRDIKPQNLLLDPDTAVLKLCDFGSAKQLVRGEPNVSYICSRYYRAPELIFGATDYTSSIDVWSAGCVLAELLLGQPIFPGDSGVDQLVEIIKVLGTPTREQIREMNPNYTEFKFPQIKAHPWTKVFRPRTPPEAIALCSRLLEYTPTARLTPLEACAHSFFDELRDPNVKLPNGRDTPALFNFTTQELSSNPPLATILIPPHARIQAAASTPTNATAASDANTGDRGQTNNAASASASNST
T2 sequence (Q15349 whole entry, the tested form may be a part): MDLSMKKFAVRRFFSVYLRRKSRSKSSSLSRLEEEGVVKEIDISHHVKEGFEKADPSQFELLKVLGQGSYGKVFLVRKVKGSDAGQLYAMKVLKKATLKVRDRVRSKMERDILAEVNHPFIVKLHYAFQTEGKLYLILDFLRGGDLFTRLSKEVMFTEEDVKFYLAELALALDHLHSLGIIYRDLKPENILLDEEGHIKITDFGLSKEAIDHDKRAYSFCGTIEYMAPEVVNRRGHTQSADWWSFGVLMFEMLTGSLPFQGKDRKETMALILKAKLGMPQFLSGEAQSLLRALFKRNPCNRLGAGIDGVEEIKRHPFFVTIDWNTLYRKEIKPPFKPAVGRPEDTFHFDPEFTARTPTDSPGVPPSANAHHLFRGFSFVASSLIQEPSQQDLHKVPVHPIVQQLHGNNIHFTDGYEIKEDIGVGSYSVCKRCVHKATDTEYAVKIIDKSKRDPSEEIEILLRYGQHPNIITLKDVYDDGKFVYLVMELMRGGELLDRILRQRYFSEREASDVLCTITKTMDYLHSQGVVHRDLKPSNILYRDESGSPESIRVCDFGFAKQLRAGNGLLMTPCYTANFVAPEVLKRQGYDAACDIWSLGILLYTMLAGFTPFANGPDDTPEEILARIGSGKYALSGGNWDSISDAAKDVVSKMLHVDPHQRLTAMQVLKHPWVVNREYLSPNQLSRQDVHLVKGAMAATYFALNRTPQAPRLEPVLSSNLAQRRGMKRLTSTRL
CDK7, sequence (P50613 whole entry): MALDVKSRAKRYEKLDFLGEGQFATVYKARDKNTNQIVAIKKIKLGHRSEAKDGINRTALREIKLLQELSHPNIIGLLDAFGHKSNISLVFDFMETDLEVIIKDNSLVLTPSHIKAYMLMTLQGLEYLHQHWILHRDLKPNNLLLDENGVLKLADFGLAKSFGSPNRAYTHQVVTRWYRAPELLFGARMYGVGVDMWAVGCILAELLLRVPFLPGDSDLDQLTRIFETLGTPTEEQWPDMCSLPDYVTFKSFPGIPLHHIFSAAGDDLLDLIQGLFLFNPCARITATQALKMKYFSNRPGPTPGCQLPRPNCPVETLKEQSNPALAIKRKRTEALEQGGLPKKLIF

In the case of `CN1CCN(Cc2ccc(Nc3ncc(Cl)c(Nc4ccccc4S(=O)(=O)N(C)C)n3)cc2)CC1` [TP-0903], the inhibition at 0.1 µM (PRP4) is reported as -18.7%, the “Inhibition vs DMSO” value [1] is reported as -2.0% and the “Inhibition vs DMSO” value (PI4KA, PI4KAP2) is reported as 11.9%. The “Inhibition vs DMSO” value (CK1g1, CK1g2, CK1g3) was -28.7%, the “Inhibition vs DMSO” value (MARK2, MARK3) was 37.1% and the “Inhibition vs DMSO” value (KSR1, KSR2) was -11.7%. For the same molecule, the “Inhibition vs DMSO” value (IKKe, TBK1) was 74.5%, the “Inhibition vs DMSO” value (Wnk1, Wnk2, Wnk4) was -35.0% and the “Inhibition vs DMSO” value (MAP2K1, MAP2K2) was -17.4%. For the same molecule, the “Inhibition vs DMSO” value (MAPKAPK2, MAPKAPK3) was -22.0%, the “Inhibition vs DMSO” value (AurA, AurB, AurC) was 68.0% and the “Inhibition vs DMSO” value (Wnk1, Wnk2, Wnk3) was -31.8%. The “Inhibition vs DMSO” value (ABL, ARG; Activation Loop) was 5.0%, the “Inhibition vs DMSO” value (ABL, ARG; Lys1) was 24.5% and the “Inhibition vs DMSO” value (PCTAIRE1, PCTAIRE3) was 81.4%. The “Inhibition vs DMSO” value (PCTAIRE2, PCTAIRE3) was -8.3%, the Highest tolerated doses [2] was 40 mg/kg and 60 mg/kg and the inhibition at 0.1 µM (CaMK1d; labeling site Lys1, peptide LFAVKCIPK) was 13%. For the same molecule, the inhibition at 0.1 µM (CaMK1d; labeling site Lys2, peptide DLKPENLLYYSQDEESK) was 8.8%, the inhibition at 0.1 µM (JAK3 domain2) was 31% and the Inhibition (CK1g3) was -14.0%. The inhibition at 0.1 µM (MAP4K5; labeling site Lys1, peptide NVHTGELAAVKIIK) was 28.4%, the inhibition at 0.1 µM (MAP4K5; labeling site Lys2, peptide DIKGANILLTDHGDVK) was 60.8% and the Kd (CDK7) was < 5 nM. It also gave an Inhibition (MLK3) of 31.9%, an inhibition at 0.1 µM (RSK3 domain1) of 53.5% and an inhibition at 0.1 µM (GSK3B) of 32.3%. It also gave an Inhibition [3] of 11.0%, an inhibition at 0.1 µM (IRAK3; labeling site Lys1, peptide VEIQNLTYAVKLFK) of 87.9% and an inhibition at 0.1 µM (IRAK3; labeling site Protein Kinase Domain, peptide SHLEHQSCTINMTSSSSKHLWYMPEEYIR) of 94.9%. The Kd (FLT3 ITD/D835V) was 0.79 nM and the inhibition at 0.1 µM (RSK1 domain2) was 8.6%.
